Laboratory results as given in ChEMBL document CHEMBL3853351, “Discovery of O6-benzyl glaziovianin A, a potent cytotoxic substance and a potent inhibitor of α,β-tubulin polymerization” (Bioorg Med Chem, 2016).
Values joined by “and” are separate entries in the source; they are usually repeats but may differ in a detail not shown here. Identical values can stand only once. Active and inactive are the calls of the source. The calls are words filed in the database; no cut-off is given here.

Key:
[1] = Inhibition of alpha-[32P]-GTP binding to human gamma-tubulin preincubated for 15 mins followed by alpha-[32P]-GTP addition measured after 30 mins
[2] = Cytotoxicity against human HeLa cells assessed as reduction in cell growth measured after 48 hrs by WST-8 assay; assay type: functional, cell-based
Sus scrofa [3] = species on record: Sus scrofa; test: Inhibition of microtubule associated proteins free porcine brain alpha/beta-tubulin polymerization at 3 uM measured after 10 mins by thermostatic spectrophotometric method
[4] = Inhibition of microtubule associated proteins free porcine brain alpha/beta-tubulin polymerization measured after 10 mins by thermostatic spectrophotometric method; parameters: species or system Sus scrofa
Sus scrofa [5] = species on record: Sus scrofa; test: Inhibition of [3H]colchicine binding to microtubule associated proteins free porcine brain alpha/beta-tubulin assessed as remaining radiolabeled binding at 100 uM measured after 5 mins by centrifugal gel filtration method relative to control
Sus scrofa [6] = species on record: Sus scrofa; test: Inhibition of [3H]vinblastine binding to microtubule associated proteins free porcine brain alpha/beta-tubulin assessed as remaining radiolabeled binding at 100 uM measured after 5 mins by centrifugal gel filtration method relative to control
[7] = Binding affinity to porcine alpha/beta tubulin assessed as decrease in tryptophan fluorescence measured after 30 mins by tryptophan fluorescence assay; parameters: species or system Sus scrofa
HeLa [8] = test: Inhibition of bipolar spindle formation in human HeLa cells at 100 and 300 nM measured after 6 hrs by DAPI staining-based fluorescence microscopic analysis; assay type: functional, cell-based
HeLa [9] = test: Mitotic arrest in human HeLa cells at 100 nM measured after 18 hrs by propidium iodide-staining based flow cytometry; assay type: functional, cell-based
Homo sapiens = species on record: Homo sapiens; test: Inhibition of alpha-[32P]-GTP binding to human gamma-tubulin at 60 uM preincubated for 15 mins followed by alpha-[32P]-GTP addition measured after 30 mins relative to control
HeLa [10] = test: Inhibition of bipolar spindle formation in human HeLa cells at 1 uM measured after 6 hrs by DAPI staining-based fluorescence microscopic analysis; assay type: functional, cell-based

C#CCOc1cc2occ(-c3cc(OC)c4c(c3OC)OCO4)c(=O)c2cc1OC
IC50 [1]: 450 nM and 170 nM

COc1cc2occ(-c3cc(OC)c4c(c3OC)OCO4)c(=O)c2cc1OCc1ccccc1
IC50 [2]: 70 nM | inhibition (Sus scrofa [3]): Active | IC50 [4]: 2100 nM | Activity (Sus scrofa [5]): 20.3% | Activity (Sus scrofa [6]): 118% | Kd [7]: 1000 nM | inhibition (HeLa [8]): Active | Activity (HeLa [9]): Active | inhibition (Homo sapiens): 89.6%

CC[C@]1(O)C[C@@H]2CN(CCc3c([nH]c4ccccc34)[C@@](C(=O)OC)(c3cc4c(cc3OC)N(C)[C@H]3[C@@](O)(C(=O)OC)[C@H](OC(C)=O)[C@]5(CC)C=CCN6CC[C@]43[C@@H]65)C2)C1
Activity (Sus scrofa [5]): 127% | Activity (Sus scrofa [6]): 5.3%

COc1cc2c(=O)c(-c3cc(OC)c4c(c3OC)OCO4)coc2cc1OCc1ccccc1
IC50 [2]: 12800 nM | inhibition (Homo sapiens): 93.3%

COc1cc2occ(-c3cc(OC)c4c(c3OC)OCO4)c(=O)c2cc1OC [GLAZIOVIANIN A]
IC50 [2]: 610 nM | Activity (Sus scrofa [5]): 67.8% | Activity (Sus scrofa [6]): 112% | Kd [7]: 80000 nM | inhibition (HeLa [10]): Active

COc1cc2c(c(OC)c1OC)-c1ccc(OC)c(=O)cc1[C@@H](NC(C)=O)CC2 [COLCHICINE]
IC50 [2]: 20 nM | Kd [7]: 26600 nM
